Laboratory results as given in patent publication US12422427B2, “Compounds for treatment of diseases and methods of screening therefor” (Max-Planck-Gesellschaft zur Förderung der Wissenschaften …, priority 2018, dated 2025).

Assays:
[1] = system: HeLa cells expressing FUS GFP; assay: HeLa cell compound dose responses (FUS GFP, arsenate stress); assay type: cell-based
Description: Small dilution steps rather than concentration replicates were selected as it provides greater statistical power from a set number of samples. Final DMSO concentration was 0.08% in all samples, and each plate included at least 12 control wells with 0.08% DMSO. Cytoplasmic FUS droplet number and nuclear/cytoplasm partition of FUS were analysed using custom macros in ImageJ. Nuclei were identified by intensity thresholding of the blue fluorescence image following a 5 px Gaussian blur. Cytoplasmic FUS droplets by intensity thresholding of the green image following a 10 px weight 0.9 unsharp filter masked by the thresholded nuclei, and nuclear FUS droplets by intensity thresholding of the green image following a 5 px weight 0.9 unsharp filter and 10 px rolling ball background subtraction masked to only include thresholded nuclei. The ratio of cytoplasmic FUS drops to nuclei was taken as cytoplasmic FUS droplets per cell per field of view, and p, the ratio of partition of FUS to the nucleus and the cytoplasm, was derived from a=Vn/vt, the ratio of nuclear to total green signal per field of view, where p=a/(1−a). […] Six fields of view were captured and analysed per condition.

HeLa cells = assay: 15N lipoamide uptake by HeLa cells measured by NMR; assay type: in vitro ADME; conditions: for uptake of the lipoamide present in the medium: 100 μM, 1 h, 37° C., stressed or unstressed HeLa cells
Description: The concentration of lipoamide relative to protein required for an effect on condensate liquidity in vitro was higher than the EC50 on cells, on the order of 100 μM lipoamide with 1 μM FUS (FIGS. 1D-1E, FIGS. 5A-5E). In cells, FUS concentrations are high for a protein (low μM)^41 and the cellular EC50 was on the order of 10 μM (FIG. 2A, FIG. 3D). We also saw inverse effects of lipoamide on FUS-containing condensates in vitro (more, larger condensates) and in cells (fewer stress granules). To reconcile this difference and to understand the relevance of the effects in vitro in cells, we wanted to know the actual concentrations of compounds in cells. In principle, isotopic labelling allows direct monitoring of isotopically-labelled compounds even in complex environment through appropriate spectroscopy. To use this approach, ^15N-labelled lipoamide (FIG. 7A) was synthesised.
Uptake of ^15N lipoamide by cells from the medium was quantified by NMR following incubation of lipoamide at 37° C. for 1 h either in the absence or presence of HeLa cells (FIG. 7B). Cellular uptake was determined by calculating the difference between medium incubated with cells or without cells for combinations of either R-(+) or (±)-lipoamide and either unstressed or stressed cells (FIG. 7C). For one sample, stressed cells with R-(+)-lipoamide, we confirmed that strong signal from the cell fraction was consistent with uptake of a large proportion of lipoamide (FIG. 7C). Both R-(+) and ±-lipoamide measurements indicated uptake of 35±11% (n=3 and 2, respectively) of the lipoamide present in the medium. No significant difference was observed either for uptake of R-(+) compared to (±)-lipoamide or stressed compared to unstressed cells (FIG. 7D).
For analysis of ^15N lipoamide uptake by cells HeLa cells expressing FUS GFP were grown in 6 well plates to 10^6 cells/well in DMEM supplemented with 10% FCS. To simultaneously stress and treat cells, the medium was replaced with 0.6 ml medium supplemented with potassium arsenate and 100 μM ^15N racemic or R-(+)-lipoamide for 1 h at 37° C. High concentrations of compound were used to maximise the signal. […] Wells were prepared for all combinations of no compound (1% DMSO control), ^15N […] or ^15N R-(+)-lipoamide, with or without potassium arsenate and with or without cells. ^1H detected ^15N edited ^1H sensitivity enhanced HSQ was used to quantify ^15N lipoamide concentration (see Supplementary Information). Solvent, pH and temperature sensitivity of the primary amide proton chemical shifts were determined using dummy samples assembled from the appropriate solvent and added compounds.
^1H detected ^15N edited ^1H sensitivity enhanced HSQC NMR (referred to here as (^15N) ^1H) spectra were acquired on a narrow bore Varian solution state spectrometer operating with a fixed field strength of 14.1 T, equipped with a room-temperature probe.
The free induction decay was recorded for an acquisition time of 0.0624 and a sweep with of 8 kHz recorded over 1000 and a recovery delays of 1 s. […] The J coupling between the amide protons and the ^15N in H2O samples was determined to be 96 Hz, and so the transfer times of 1/4 J in the INEPT portions of the pulse sequence were set to 2.6 ms. […]

[2] = system: FUS GFP localisation in stressed HeLa cells; assay: Ex vivo HeLa cell screen of FUS GFP localisation under arsenate stress; assay type: cell-based; conditions: 10 μM compound 1 h pre-treatment, then 1 h 1 mM potassium arsenate
Excerpt: The inventors developed a cell-based screen using a HeLa cell line that stably expresses GFP-tagged FUS at near-endogenous levels. While not required for stress granule formation, FUS is a well-characterised protein with a domain structure typical of stress granule proteins. In the absence of cellular stress, FUS-GFP primarily localizes to the nucleus, where it is partially excluded from the nucleolus and localises to small puncta called paraspeckles (FIG. 1A). These are nuclear droplets implicated in retaining RNA in the nucleus for rapid stress response. Cells were pre-treated with 10 μM compound from a compound library for 1 h, then the cells were stressed with 1 mM potassium arsenate (still in the presence of compound) (FIG. 1B) and monitored FUS localization to stress granules. Arsenate disrupts antioxidant responses by reacting with thiol groups, blocks the tricarboxylic acid (TCA) cycle by reacting with the thiols in vital lipoyl moieties and causes general oxidative damage. In untreated stressed cells, FUS is partly exported to the cytoplasm where, in combination with other proteins and mRNA, it phase separates to form liquid-like stress granules surrounded by cytoplasm depleted in FUS (FIG. 1A).
Many compounds affected stress granule formation. Multi-parameter image analysis, including cytoplasmic puncta number, nuclear puncta number, and nuclear/cytoplasm partition, was used to rank compounds by strength of effect on FUS localisation in stressed cells (FIG. 1C). […] These were the polysome stabilising compound emetine, which prevents release of mRNA, and the heavy metal chelating compound dimercaprol (which should sequester the stressor). Edaravone, thought to be an antioxidant and used as an ALS therapeutic in Japan and the US, had no effect on FUS localization in arsenate-stressed cells.
The effect of compounds on FUS GFP localisation in stressed HeLa cells was screened in 384 well format. 4000 cells were seeded per well and incubated for 24 h, after which the medium was replaced with 40 μl fresh medium and compound added to a final concentration of 10 μM by acoustic dispensing (Labcyte Echo 550). The final concentration of DMSO in all samples was 0.1%. […]
For the initial screen FUS GFP signal was analysed using KNIME. […] Particle number and sum area, granularity at 9, 10 & 11 px (cytoplasm) or 1, 5, 6, 7, 8 & 9 px (nucleus) scale, texture at 10 px scale and integrated signal intensity were measured for the nucleus and cytoplasm in the green (FUS GFP) channel. Z scores (z=(x−μ)/σ where x is the observed value, μ the control mean and σ the control standard deviation) relative to the DMSO treated control wells on each plate were calculated for each of the parameters, and combined into the Mahalanobis distance.

Structure (SMILES): O=C(O)CCCCC(S)CCS (racemic) [(±)-dihydrolipoic acid, 6,8-dimercaptooctanoic acid]
- EC50 reducing stress granule number, compared among compounds ([1]; 1 h 1 mM arsenate stress): comparable EC50

Structure (SMILES): [15NH2]C(=O)CCCCC1CCSS1 (racemic) [±-lipoamide, ^15N (±)-Lipoamide]
- uptake of the lipoamide present in the medium (HeLa cells): 35±11%

Structure (SMILES): SCCCS [1,3-propanedithol, 1,3-propanedithiol, reference compound]
- effect on stress granule number ([1]; up to 100 μM): no effect

Structure (SMILES): CC1=NN(c2ccccc2)C(=O)C1 [Edaravone]
- effect on stress granules / FUS localisation in stressed cells [2]: no effect

Structure (SMILES): [15NH2]C(=O)CCCC[C@@H]1CCSS1 [R-(+)-lipoamide, ^15N R-(+)-Lipoamide]
- uptake of the lipoamide present in the medium (HeLa cells): 35±11%

Structure (SMILES): NC(=O)CCCCC1CCSS1 (stereo not drawn) [^15N lipoamide]
- average intracellular concentration (HeLa cells; calculated from percentage uptake, number of cells and their volume): 5.0 ± 1.6 mM

Structure (SMILES): OCC(S)CS (stereo not drawn) [dimercaprol]
- effect on stress granules / FUS localisation in stressed cells [2]: reduction of stress granules

Structure (SMILES): CC[C@H]1CN2CCc3cc(OC)c(OC)cc3[C@@H]2C[C@@H]1C[C@H]1NCCc2cc(OC)c(OC)cc21 [emetine]
- effect on stress granules / FUS localisation in stressed cells [2]: reduction of stress granules

Structure (SMILES): CC1=CC(=O)c2ccccc2C1=O [menadione]
- effect on stress granules / FUS localisation in stressed cells [2]: did not reduce stress granule number
